According to patent US7205003B2, “Method and topical formulation for treating skin conditions associated with aging” (Dermatrends, Inc., priority 2001, dated 2007):
Read-outs that look alike come from different tables or passages of the source.

Assays:
[1] = in vitro keratolysis study: protein released from ground adult foot callus, BioRad protein assay
Description: An in vitro keratolysis study was performed to compare the capability of glycolic acid and a base for removing protein from stratum corneum. Adult foot callus was collected, grounded and the portion between 50–80 mesh was used. Glycolic acid and sodium hydroxide solutions (concentration =0.05 M) were prepared in distilled water. Ten mg of ground callus powder was place in a test tube. Four ml of a test chemical was added to the callus and the test tube was placed in a shaker and incubated in a water bath at 37° C. for a predetermined incubation time. The incubation time periods were 10 min., 40 min, 2 hours, 4 hours, 6 hours and 24 hours. Six samples of each base were tested a total of six times each at each of the aforementioned incubation time periods.
At the end of each incubation period, the test tube was removed from the shaker and the test tube was centrifuged. The solution was removed and filtered, and the protein in the solution was then determined using a BioRad® protein assay kit.

[2] = cited from earlier work
[3] = cited from earlier work; remark: listed apart in the source
[4] = Example 1, 0.05 M, all time points, versus glycolic acid / water control
[5] = Example 2, 0.05 M, 10 minutes, versus glycolic acid, other bases, water control

## O=C(O)CO [Glycolic Acid, reference compound]
[1]; [4]
  protein released, comparison in words: did not show statistical differences in comparison with water
[1]; [5]
  protein released, comparison in words: did not show significant differences in comparison with water

## O.O.O.O.O.O.O.O=P([O-])([O-])O.[Na+].[Na+] [Sodium phosphate, dibasic, heptahydrate]
[2]; concentration not given
  pH of Aqueous Solution: ~9.5

## O.O.O.O.O.O.O.O.O.O.O.O.O=P([O-])([O-])O.[Na+].[Na+] [Sodium phosphate, dibasic, dodecahydrate]
[2]; concentration not given
  pH of Aqueous Solution: ~9.5

## OCCNCCO [Diethanolamine]
[2]; 0.1 N
  pH of Aqueous Solution: 11.0 (0.1 N)

## [O]=[Ca] [Calcium oxide]
[3]
  solubility in water, in words: Soluble in water, Form Ca(OH)2

## [O]=[Mg] [Magnesium oxide]
[2]; saturated solution in water
  pH of Aqueous Solution: 10.3 (saturated aqueous solution)

## O=P([O-])([O-])O.[Na+].[Na+] [Sodium phosphate, dibasic, anhydrous]
[2]; 1.0% (1%)
  pH of Aqueous Solution: 9.1 (1%)

## O.O.O=P([O-])([O-])O.[Na+].[Na+] [Sodium phosphate, dibasic, dihydrate]
[2]; concentration not given
  pH of Aqueous Solution: ~9.5

## CC(N)(CO)CO [2-amino-2-methyl-1,3-propanediol]
[2]; 0.1 m
  pH of Aqueous Solution: 10.8 (0.1 m)

## N [Ammonium hydroxide]
[2]; 0.001 N
  pH of Aqueous Solution: 10.27
[2]; 1 N
  pH of Aqueous Solution: 11.27

## O=C([O-])CC(O)(CC(=O)[O-])C(=O)[O-].[K+].[K+].[K+] [Potassium citrate]
[2]; concentration not given
  pH of Aqueous Solution: ~8.5

## CC(=O)[O-].[Na+] [Sodium acetate, anhydrous]
[2]; 0.1 N
  pH of Aqueous Solution: ~8.9 (0.1 N)

## [Na+].[OH-] [NaOH, Sodium hydroxide]
[1]; Example 1, 0.05 M
  amounts of protein released at 6 hours and 24 hours versus 10 minutes, 40 minutes, 2 hours and 4 hours: significantly higher
[1]; [4]
  protein released, comparison in words: released more protein
[1]; [5]
  protein released, comparison in words: released more protein
[2]; 0.05%
  pH of Aqueous Solution: 12
[2]; 0.5%
  pH of Aqueous Solution: 13
[2]; 5%
  pH of Aqueous Solution: 14

## O.O.O.O.O.O.O.O.O.O.O.O.O=P([O-])([O-])[O-].[Na+].[Na+].[Na+] [Sodium phosphate, tribasic dodecahydrate]
[2]; 0.1%
  pH of Aqueous Solution: 11.5
[2]; 0.5%
  pH of Aqueous Solution: 11.7
[2]; 1.0% (1%)
  pH of Aqueous Solution: 11.9

## O=P([O-])([O-])O.[Na+].[Na+] [Sodium phosphate, dibasic]
[2]; concentration not given
  pH of Aqueous Solution: ~9.5

## O=C([O-])[O-].[Na+].[Na+] [Sodium carbonate anhydrous]
[2]; concentration not given
  pH of Aqueous Solution: ~11.6

## N.N.O=P(O)(O)O [Ammonium phosphate, dibasic]
[2]; concentration not given
  pH of Aqueous Solution: ~8

## CC(C)(N)CO [2-amino-2-methyl-1-propanol]
[2]; 0.1 m
  pH of Aqueous Solution: 11.3 (0.1 m)
